Key:
[1] = tested on: NCI-H929 human myeloma cells; experiment: Inhibition of the proliferation of NCI-H929 cells (luminescent cell viability, CTG); assay type: cell-based; conditions: 6 days, CellTiter-Glo
Protocol: The effect of the compounds of the present invention on the proliferation of NCI-H929 human myeloma cells was evaluated by using a luminescent cell viability test experiment.
The compound was dissolved and diluted to 5 mM in DMSO, and then serially diluted 4-fold in DMSO to a minimum concentration of 0.31 μM. Each concentration was further diluted 50-fold with RPMI 1640 medium (Thermo Fisher, Cat. No. 72400-047). If the IC50 value of the compound was relatively low, the initial concentration of the compound could be lowered.
NCI-H929 cells (Nanjing Cobioer, Cat. No. CBP60243) were cultured in RPMI 1640 complete medium [containing 10% FBS (GIBCO, Cat. No. 10099-141) and 100 units/mL penicillin-streptomycin (Thermo Fisher, Cat. No. 15140122)]. Cells (15000 cells/mL) were plated in 90 μL of the complete medium in a 96-well plate and cultured overnight, and then 10 μL of the compound solution was added into each well. The cells were cultured in an incubator at 37° C. and 5% CO2 for 6 days. Then the cell culture plate was taken out and balanced to room temperature according to the instruction of the CellTilter-Glo (CTG) kit (Promega, Cat. No. G7572). 50 μL CTG reagent was added for complete lysis, the plate was placed at room temperature for 10 minutes, and the luminescence signal was read with a microplate reader (EnVision, Perkin Elmer). The group containing 0.2% DMSO medium was used as 0% inhibition. The XLfit software was used to plot the compound inhibition curve and calculate the inhibitory IC50 value.

IL-2 = experiment: Stimulation of IL-2 secretion in anti-CD3-stimulated hPBMC (ELISA); assay type: cell-based, human; conditions: anti-CD3 antibody, 72 hours
Protocol: (§1) The immunomodulatory function of the compound of the present invention was evaluated by detecting its effect on the secretion amount of TNFα and IL-2 in cells from the human peripheral blood mononuclear cells (hPBMC) by the enzyme linked immunosorbent assay (ELISA) method.
(§2) The peripheral blood of healthy volunteers was collected by using EDTA anticoagulant tubes, and diluted with phosphate buffered saline (PBS) containing 2% fetal bovine serum (Gibco, Cat. No. 10099-141) in an equal volume ratio. 30 mL of the resulting diluted sample was transferred into a Sepmate-50 centrifuge tube (Stemcell, Cat. No. 86450) to which 15 mL of a density-gradient centrifugation liquid (Sigma, Cat. No. 10771) had been added in advance, and centrifuged at room temperature at 1200×g for 10 minutes. The liquid containing PBMC in the upper layer was transferred to a new 50-mL centrifuge tube, and centrifuged at room temperature at 300×g for 8 minutes. The supernatant was discarded, and the resulting PBMC was resuspended to 5×10^6/mL by using RPMI 1640 medium (Gibco, Cat. No. 72400-047). 80 μL of the resulting suspension was added to each well in a 96-well plate.
(§3) Each concentration was further diluted 50-fold with RPMI 1640 medium. 10 μL of each compound solution was added into the cells in the above 96-well plate. The 96-well plate was placed in an incubator, and the cells were cultured at 37° C. and 5% CO2 for 1 hour. 10 μL of LPS (Sigma, Cat. No. L-2880) with a concentration of 100 ng/mL was added, and the cells were continuously cultured in the incubator at 37° C. and 5% CO2 overnight. Supernatants were collected for the detection of TNFα.
The above-mentioned 96-well plate can also be placed in an incubator, and the cells were cultured at 37° C. and 5% CO2 for 1 hour. 10 μL of anti-CD3 antibody (Thermo Fisher, Cat. No. 14-0037-82) with a concentration of 500 ng/mL was added, and the cells were continuously cultured in the incubator at 37° C. and 5% CO2 for 72 hours. Supernatants were collected for the detection of IL-2.
(§4) TNFα and IL-2 were detected respectively according to each instruction of the ELISA kits (R&D, Cat. No. DY210 and DY202, respectively) to obtain the OD450 values for each well. The group containing 0.2% DMSO medium was used as 0% inhibition or stimulation. The XLfit software was used to plot the compound inhibition or stimulation curve and calculate the corresponding IC50 or EC50.

TNFα = experiment: Inhibition of TNFα secretion in LPS-stimulated hPBMC (ELISA); assay type: cell-based; conditions: Homo sapiens, overnight, read-out: IC50 (nM) for the inhibition of the TNFa secretion
Protocol: as §1, §2, §3, §4

[2] = In vivo pharmacokinetic experiment in rats; conditions: male Sprague-Dawley rats, n = 3; for F: PO 5 mpk vs IV 1 mpk; for clearance / Vd / AUC(0-t) / Cmax: rat, plasma; for clearance / Vd: 1 mg/kg, IV 1 mpk; for Vd: read-out: VSS; for AUC(0-t) / Cmax: 5 mg/kg, PO 5 mpk
Protocol: The compound to be tested was dissolved in 5% DMA+20% Solutol+75% Saline vehicle to prepare a 0.5 mg/mL administration solution.
2 mL/kg of the administration solution was administered through the intravenous injection (IV) at a dose of 1 mg/kg to three fed male Sprague-Dawley rats, respectively. Blood samples were collected at 0.083, 0.25, 0.5, 1, 2, 4, 8 and 24 hours after administration. 10 mL/kg of the administration solution was administered by gavage (PO) at a dose of 5 mg/kg to other three fed male Sprague-Dawley rats, respectively. Blood samples were collected at 0.25, 0.5, 1, 2, 4, 8 and 24 hours after administration.
The concentration of the compound to be tested in plasma was obtained with the LC-MS/MS quantitative analysis with an API-4500 mass spectrometer, and the limit of quantitation (LOQ) for the plasma was 1 ng/mL.

| SMILES | IC50 ([1]; Homo sapiens, NCI-H929, 144 h) | EC50 (IL-2; Homo sapiens) | IC50 (TNFα) | other results |
| --- | --- | --- | --- | --- |
| CC(c1ccc(COc2cccc3c2CN([C@H]2CCC(=O)NC2=O)C3=O)cc1)N1CC2CC1CO2 (single isomer, unassigned) [Compound 18] | 3.1 nM | 11 nM | – | – |
| C[C@H](c1ccc(COc2cccc3c2CN([C@H]2CCC(=O)NC2=O)C3=O)cc1)N1CCN(C(=O)C2CC2)CC1 [Compound 11, (S)-3-(4-((4-((R)-1-(4-(cyclopropanecarbonyl)piperazin-1-yl)ethyl)benzyl)oxy)-1-oxoisoindolin-2-yl)piperidine-2,6-dione] | 2.2 nM | – | – | – |
| C[C@H](c1ccc(COc2cccc3c2CN([C@H]2CCC(=O)NC2=O)C3=O)cc1)N1CCN(C)CC1 [Compound 14, (S)-3-(4-((4-((R)-1-(4-methylpiperazin-1-yl)ethyl)benzyl)oxy)-1-oxoisoindolin-2-yl)piperidine-2,6-dione] | 1.4 nM | – | – | – |
| C[C@H](c1ccc(COc2cccc3c2CN([C@H]2CCC(=O)NC2=O)C3=O)cc1)N1CCN(S(C)(=O)=O)CC1 [Compound 13, (S)-3-(4-((4-((R)-1-(4-(methylsulfonyl)piperazin-1-yl)ethyl)benzyl)oxy)-1-oxoisoindolin-2-yl)piperidine-2,6-dione] | 1.2 nM | – | – | – |
| CC(c1ccc(COc2cccc3c2CN(C2CCC(=O)NC2=O)C3=O)cc1)N1CCOCC1 (stereo not drawn) [Compound 1, 3-(4-((4-(1-morpholinoethyl)benzyl)oxy)-1-oxoisoindolin-2-yl)piperidine-2,6-dione] | 7.7 nM | – | – | – |
| C[C@H](c1ccc(COc2cccc3c2CN([C@H]2CCC(=O)NC2=O)C3=O)cc1)N1CCN(c2ccncn2)CC1 [Compound 15, (S)-3-(1-oxo-4-((4-((R)-1-(4-(pyrimidin-4-yl)piperazin-1-yl)ethyl)benzyl)oxy)isoindolin-2-yl)piperidine-2,6-dione] | 0.4 nM | 19 nM | 1.7 nM | – |
| C[C@H](c1ccc(COc2cccc3c2CN([C@H]2CCC(=O)NC2=O)C3=O)cc1)N1CCN(c2ccc(F)cc2F)CC1 [Compound 17, (S)-3-(4-((4-((R)-1-(4-(2,4-difluorophenyl)piperazin-1-yl)ethyl)benzyl)oxy)-1-oxoisoindolin-2-yl)piperidine-2,6-dione] | 0.3 nM | – | 3.7 nM | – |
| C[C@H](c1ccc(COc2cccc3c2CN([C@H]2CCC(=O)NC2=O)C3=O)cc1)N1CCN(c2ccncc2F)CC1 [Compound 20, (S)-3-(4-((4-((R)-1-(4-(3-fluoropyridin-4-yl)piperazin-1-yl)ethyl)benzyl)oxy)-1-oxoisoindolin-2-yl)piperidine-2,6-dione] | 0.1 nM | 1.9 nM | – | – |
| CC(C)(c1ccc(COc2cccc3c2CN([C@H]2CCC(=O)NC2=O)C3=O)cc1)N1CCN(c2ccc(C#N)cc2F)CC1 [Compound 8, (S)-4-(4-(2-(4-(((2-(2,6-dioxopiperidin-3-yl)-1-oxoisoindolin-4-yl)oxy)methyl)phenyl)-prop-2-yl)piperazin-1-yl)-3-fluorobenzonitrile] | 0.5 nM | 4 nM | – | – |
| N#Cc1ccc(N2CCN(C3(c4ccc(COc5cccc6c5CN([C@H]5CCC(=O)NC5=O)C6=O)cc4)CC3)CC2)c(F)c1 [Compound 9, (S)-4-(4-(1-(4-(((2-(2,6-dioxopiperidin-3-yl)-1-oxoisoindolin-4-yl)oxy)methyl)phenyl)-cyclopropyl)piperazin-1-yl)-3-fluorobenzonitrile] | 1.1 nM | – | – | – |
| C[C@H](c1ccc(COc2cccc3c2CN(C2CCC(=O)NC2=O)C3=O)cc1)N1CCOCC1 (stereo partly drawn) [Compound 3, 3-(4-((4-((R)-1-morpholinoethyl)benzyl)oxy)-1-oxoisoindolin-2-yl)piperidine-2,6-dione] | 7 nM | 8 nM | 1.1 nM | F [2]: 20%; clearance [2]: 61 mL/min/kg; Vd [2]: 4.2 L/kg; AUC(0-t) [2]: 270 ng·h/mL; Cmax [2]: 105 ng/mL |
| C[C@@H](c1ccc(COc2cccc3c2CN(C2CCC(=O)NC2=O)C3=O)cc1)N1CCOCC1 (stereo partly drawn) [Compound 4, 3-(4-((4-((S)-1-morpholinoethyl)-benzyl)oxy)-1-oxoisoindolin-2-yl)piperidine-2,6-dione] | 5 nM | 4.1 nM | 0.9 nM | – |
| O=C1CCC(N2Cc3c(OCc4ccc(C5(N6CCOCC6)CC5)cc4)cccc3C2=O)C(=O)N1 (stereo not drawn) [Compound 2, 3-(4-((4-(1-morpholinocyclopropyl)benzyl)oxy)-1-oxoisoindolin-2-yl)piperidine-2,6-dione] | 35 nM | 10 nM | 7.8 nM | – |
| CC(C)(c1ccc(COc2cccc3c2CN([C@H]2CCC(=O)NC2=O)C3=O)cc1)N1CCOCC1 [Compound 5, (S)-3-(4-((4-(2-morpholinopropan-2-yl)benzyl)oxy)-1-oxoisoindolin-2-yl)piperidine-2,6-dione] | 7.8 nM | – | – | F [2]: 4%; clearance [2]: 110 mL/min/kg; Vd [2]: 3.3 L/kg; AUC(0-t) [2]: 8.8 ng·h/mL; Cmax [2]: 1.6 ng/mL |
| C[C@@H](c1ccc(COc2cccc3c2CN([C@H]2CCC(=O)NC2=O)C3=O)cc1)N1CCN(c2ccc(C#N)cc2F)CC1 [Compound 7, 4-(4-((S)-1-(4-(((2-((S)-2,6-dioxopiperidin-3-yl)-1-oxoisoindolin-4-yl)oxy)methyl)phenyl)-ethyl)piperazin-1-yl)-3-fluorobenzonitrile] | 0.2 nM | 3.2 nM | 2.8 nM | F [2]: 19%; clearance [2]: 13 mL/min/kg; Vd [2]: 2.4 L/kg; AUC(0-t) [2]: 1200 ng·h/mL; Cmax [2]: 121 ng/mL |
| C[C@H](c1ccc(COc2cccc3c2CN([C@H]2CCC(=O)NC2=O)C3=O)cc1)N1CCN(C2CC2)CC1 [Compound 12, (S)-3-(4-((4-((R)-1-(4-cyclopropylpiperazin-1-yl)ethyl)benzyl)oxy)-1-oxoisoindolin-2-yl)piperidine-2,6-dione] | 0.3 nM | – | – | – |
| CC(c1ccc(COc2cccc3c2CN([C@H]2CCC(=O)NC2=O)C3=O)cc1)N1CC2CC1CO2 (single isomer, unassigned) [Compound 19] | – | – | 0.8 nM | IC50 [1]: 3.8 nM; EC50 (IL-2): 11 nM |
| N#CC(c1ccc(COc2cccc3c2CN([C@H]2CCC(=O)NC2=O)C3=O)cc1)N1CCOCC1 (stereo partly drawn) [Compound 10, 2-(4-(((2-((S)-2,6-dioxopiperidin-3-yl)-1-oxoisoindolin-4-yl)oxy)methyl)phenyl)-2-morpholinoacetonitrile] | 11 nM | 46 nM | 2.1 nM | – |

Source: patent publication US20230271933A1, “HETEROCYCLIC IMMUNOMODULATOR” (Beijing Innocare Pharma Tech Co., Ltd., priority 2020, published 2023)
